This note sets out measurements from patent US9562031B1, “Phenethyldihydrobenzodioxolones and methods of use” (Sequoia Sciences, Inc., priority 2015, dated 2017).

One assay concerns PC-3 cells. Nature of the assay: antiproliferation assay, PC-3. The format is cell-based. Conditions: Homo sapiens. On the procedure: (§1) For the antiproliferation assay, NCI-H460 (large cell lung carcinoma) or M14 (amelanotic melanoma) cells were grown in RPMI-1640 with 10% FBS supplemented with L-glutamine and HEPES. Cells were seeded into 96-well plates at 5×10^2 to 5×10^4 cells/well and allowed to adhere overnight; the medium was then removed. A stock solution of test compound in DMSO was diluted in medium to generate a series of working solutions. Aliquots (100 μl) of the working solutions were then added to the appropriate test wells to expose cells to the final concentrations of compound in a total volume of 100 μl. Seven different concentrations were tested, with 2-5 wells per concentration. Camptothecin was used as a positive control; wells containing vehicle without compound were used as negative controls. Plates were kept for 72 h in a 37° C., 5% CO2 incubator. After incubation, viable cells were detected with the CELLTITER 96 AQueous Non-Radioactive Cell Proliferation Assay (Promega), and IC50 values were determined using GraphPad Prism 5 software.
(§2) Antiproliferation of several of the active compounds was tested against additional cell lines.

For another assay, the system named is SK-Mel-2 cells. Description: antiproliferation assay, SK-Mel-2. As to conditions: Homo sapiens. In kind it is cell-based. On the procedure:
as §1, §2

The test system of another assay is HCT-116 cells. Nature of the assay: antiproliferation assay, HCT-116. The format is cell-based. As to conditions: Homo sapiens. On the procedure:
as §1, §2

A further assay concerns A549 cells. Description: antiproliferation assay, A549. The format is cell-based. As to conditions: Homo sapiens. How it is done: as §1, §2
The subject of another assay is UACC-62 cells. Description: antiproliferation assay, UACC-62. In kind it is cell-based. As to conditions: Homo sapiens. On the procedure:
as §1, §2

A further assay concerns SK-Mel-5 cells. Nature of the assay: antiproliferation assay, SK-Mel-5. The format is cell-based. As to conditions: Homo sapiens. How it is done:
as §1, §2

The test system of another assay is LOX-IMVI cells. Nature of the assay: antiproliferation assay, LOX-IMVI. Conditions: Homo sapiens. The format is cell-based. How it is done: as §1, §2
For the next assay, the system named is U-87 MG cells. Nature of the assay: antiproliferation assay, U-87 MG. The format is cell-based. Conditions: Homo sapiens. On the procedure: as §1, §2
For assay [1], the system named is M14 (amelanotic melanoma) cells. Nature of the assay: antiproliferation assay (72 h, CELLTITER 96), M14. As to conditions: Homo sapiens; Table 4. In kind it is cell-based, human. The gist of the method:
(§3)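 Human M14 melanoma and NCI-H460 lung carcinoma cells in RPMI-1640/10% FBS, seeded at 5×10^2–5×10^4 cells/well and adhered overnight, then exposed to seven compound concentrations for 72 h at 37 °C. Viable cells read by CellTiter 96 AQueous (MTS); IC50 = concentration giving 50% of maximal growth inhibition.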

The subject of assay [2] is NCI-H460 (large cell lung carcinoma) cells. Nature of the assay: antiproliferation assay (72 h, CELLTITER 96), NCI-H460. The format is cell-based, human. Conditions: Homo sapiens, NCI-H460, Table 4; read-out: NCI-H460 IC50. In short, it runs like this:
as §3

The subject of another assay is NCI-H441 cells. Nature of the assay: antiproliferation assay, NCI-H441. The format is cell-based. Conditions: Homo sapiens. How it is done:
as §1, §2

Another assay relates to NCI/ADR-RES cells. Description: antiproliferation assay, NCI/ADR-RES. In kind it is cell-based. Conditions: Homo sapiens. On the procedure: as §1, §2
Compound 4 was tested for antiproliferation activity against several paclitaxel-resistant human cancer cell lines.

A further assay concerns NCI-H526 cells. Description: antiproliferation assay, NCI-H526. Conditions: Homo sapiens. In kind it is cell-based. On the procedure:
as §1, §2

A further assay deals with NCI-H187 cells. Nature of the assay: antiproliferation assay, NCI-H187. Conditions: Homo sapiens. The format is cell-based. On the procedure: as §1, §2

Molecules are shown by their SMILES.

Usually IC50 stands for the concentration that inhibits the measured activity by half. Consider `C=CC[C@H]1C[C@]2([C@H](C)Cc3ccc(OC)cc3)OCOC2=CC1=O` [Compound 26, (6S,7aR)-6-allyl-7a-((R)-1-(4-methoxyphenyl)propan-2-yl)-7,7a-dihydrobenzo[d][1,3]dioxol-5(6H)-one], for which the IC50 turned out to be 66 nM in the assay with PC-3 cells; 110 nM in the assay on SK-Mel-2 cells; 22 nM in the assay with HCT-116 cells; 110 nM in the assay on A549 cells; 96 nM with UACC-62 cells; 34 nM with SK-Mel-5 cells. In addition, the IC50 with LOX-IMVI cells is 150 nM; with U-87 MG cells, 100 nM; in [1] it was 81 nM; in assay [2], 75 nM.
Turning to `C=CC[C@H]1C[C@]2([C@@H](C)Cc3ccc(OC)c(O)c3)OCOC2=CC1=O` [Compound 32, (6S,7aR)-6-allyl-7a-((S)-1-(3-hydroxy-4-methoxyphenyl)propan-2-yl)-7,7a-dihydrobenzo[d][1,3]dioxol-5(6H)-one], the IC50 in the assay with NCI-H441 cells turned out to be 140 nM; in the assay with HCT-116 cells, 13 nM; in the assay with NCI/ADR-RES cells, 38 nM; in the assay with NCI-H526 cells, 79 nM; with LOX-IMVI cells, 12 nM; in assay [1], 7.9 nM. In addition, the IC50 in the assay with NCI-H187 cells was determined as 46 nM; in [2], 83 nM.
